Results: US20240182475A1 (Université de Lausanne, priority 2021, published 2024)

Tests used:
[1] = biological target: recombinant human CSE (Homo sapiens, UniProt P32929); experiment: CSE activity (AzMC probe assay), H2S production by recombinant human CSE; type: biochemical; conditions: for CSE activity (AZMC probe assay) % of activation: (RFU compound max - RFU compound 0/RFU CSE 2 ug - RFU compound 0)*100; for EC50: EC50 calculated by the four-parameter logistic model
Procedure: The activity of recombinant human CSE (rCSE) was tested in the presence of C5, compound 8 (50 uM), Z20 compound 13 (50 uM) or vehicle (DMSO). Briefly, compounds were added in reaction buffer (50 mM Tris-HCl, pH 8) containing 2 μg of rCSE, 10 mM CSE substrate L-cysteine, 5 uM pyridoxal 5′-phosphate (PLP). After addition of 10 μM of the H2S sensitive fluorescent probe 7-azido-4-methylcoumarin (AzMC) in a total volume of 100 μl, fluorescence was immediately measured in kinetic mode for 2 h at 37° C. with SpectraMax M5 reader, with excitation and emission wavelengths of 365 nm and 450 nm, respectively. Statistical analysis was determined using simple linear regression with p<0.0001 for C5 vs. vehicle and p<0.0002 for Z20 vs. vehicle.
Recombinant human CSE (1 μg/well) was incubated with various concentrations of compounds (all in final 0.1% DMSO), or with 0.1% DMSO as a control, in 10 mM sodium phosphate buffer pH 8.2. Next, 10 mM L-cysteine and 1 mM PLP and 10 μM of the probe AzMC were then added to reach 100 μL total volume. Fluorescence was measured for 3 h at 37° C. with excitation and emission wavelengths of 365 nm and 450 nm, respectively, in a 96-well half area black plate with transparent bottom.
Dose-response curve of each compound was performed, using triplicate wells for each tested doses. The background (10 mM sodium phosphate buffer with L-cysteine, PLP and AzMC) was subtracted from all values. Each mean value was converted to percent activity (0% defined as the smallest mean in each data set, 100% defined as the highest mean in each data set). The data were normalized using the four parameter logistic model (4PL) equation to calculate EC50 using GraphPad Prism.

[2] = system: MOVAS cells; experiment: Cytotoxicity assay, LDH release; type: cell-based, mouse
Procedure: A) Alizarin red staining of MOVAS cells stimulated with CPP for 24 h in DMEM+10% FBS in presence of different concentrations of compound 22401. […] The background (Alizarin red staining obtained with cells in the absence of CPP) was subtracted from all values. B) Percentage of cytotoxicity, as measured by LDH release, in MOVAS cells in the same conditions as A). Statistical analysis was determined using one-way ANOVA with *p<0.05, **p<0.01, ***p<0.001.
Measurement of lactate dehydrogenase (LDH) as a means of cytotoxicity assay was performed with using CytoTox-ONE Homogeneous Membrane Integrity Assay (Promega) according to the manufacturer's instructions. Values were calculated as percentage of cytotoxicity using the following formula: [(value in sample)−(background)]/[(value in Triton X-100-treated sample)−(background)]×100.

[3] = system: MOVAS cells; experiment: MOVAS cell calcification assay (Alizarin red); type: cell-based, mouse; conditions: Mus musculus, MOVAS, read-out: Calcification assay Max calcification inhibition (%) at the indicated dose of compound
Procedure: A) Alizarin red staining of MOVAS cells stimulated with sCPP for 24 h in DMEM+10% FBS and treated or not with 50 uM of compounds. […] Statistical analysis was determined using one-way ANOVA with ***p<0.001. C) Percentage of cytotoxicity (LDH %) in MOVAS treated or not with compounds for 24 h. D) MOVAS cells were seeded onto half-area 96-well plate and incubated overnight. Then C5 or C6 at 50 uM or vehicle (DMSO), L-cysteine at 10 mM, PLP at 5 uM and the H2S sensitive fluorescent probe AzMC at 10 μM were added. The fluorescence was immediately measured in kinetic mode for 2 h at 37° C. with SpectraMax M5 reader, with excitation and emission wavelengths of 365 nm and 450 nm, respectively.
A) Alizarin red staining of Movas cells stimulated with sCPP for 24 h in DMEM+10% FBS and treated or not with 50 uM of Z20. […] C) Percentage of cytotoxicity (LDH %) in murine chondrocytes treated or not with Z20 for 24 h. Statistical analysis was determined using one-way ANOVA with ***p<0.001.
Alizarin red staining of MOVAS cells stimulated with sCPP for 24 h in DMEM+10% FBS and treated or not with different concentrations of compounds (A: C6) and (B: Z20). The graphs show Alizarin red absorbance at 570-630 nm. Statistical analysis was determined using one-way ANOVA with *p<0.05, **p<0.01, ***p<0.001.
CPP were generated by preparing 20 ml DMEM containing 10% FBS, 1 mmol/L CaCl2, 3.5 mmol/L inorganic phosphate (1.36 mmol/L NaH2PO4 and 2.14 mmol/L Na2HPO4) (Aghagolzadeh et al. Atherosclerosis, 2016). After 7 days incubation at 37° C., the suspension was centrifuged at 25000 g for 2 h at 4° C., and the pellet containing CPP was resuspended in 1 ml DMEM and stored at −20° C. until further use.
Mouse vascular smooth muscle cell line (MOVAS) cells were cultured according to the manufacturer's guidelines in DMEM culture medium supplemented with 10% FBS. Cells were cultured at 37° C. in a humidified atmosphere with 5% CO2. All cell culture experiments in 96-well plates were performed in triplicates and were repeated independently two times.
For calcification experiments, cells were seeded in 96-well plates at a density of 50,000 cells/well and left to attach for 18 h. Calcification of cell monolayers was induced by CPP (equivalent to 50 μg Ca/mL) for 24 h at 37° C., 5% CO2 in presence of various concentrations of compounds (all in final 0.1% DMSO), or of 0.1% DMSO as a control, to reach a final volume of 200 μl/well. Calcium deposition was assessed by 0.5% w/v Alizarin Red staining (pH 4.2). Briefly, after PBS washing, methanol fixation for 10 min at 4° C., and milli-Q water washing, cells were incubated for 60 min with 200 μL Alizarin Red solution and then washed four times with milli-Q water. Quantification was performed after crystal dissolution with cetylpyridinium chloride (10%) for 18 h. The absorbance was measured at 570 and 630 nm using the Spectramax M5e reader (Molecular Devices). The background (alizarin red staining obtained with cells in the absence of CPP) was subtracted from all values.

recombinant human CSE, sequence (P32929 whole entry): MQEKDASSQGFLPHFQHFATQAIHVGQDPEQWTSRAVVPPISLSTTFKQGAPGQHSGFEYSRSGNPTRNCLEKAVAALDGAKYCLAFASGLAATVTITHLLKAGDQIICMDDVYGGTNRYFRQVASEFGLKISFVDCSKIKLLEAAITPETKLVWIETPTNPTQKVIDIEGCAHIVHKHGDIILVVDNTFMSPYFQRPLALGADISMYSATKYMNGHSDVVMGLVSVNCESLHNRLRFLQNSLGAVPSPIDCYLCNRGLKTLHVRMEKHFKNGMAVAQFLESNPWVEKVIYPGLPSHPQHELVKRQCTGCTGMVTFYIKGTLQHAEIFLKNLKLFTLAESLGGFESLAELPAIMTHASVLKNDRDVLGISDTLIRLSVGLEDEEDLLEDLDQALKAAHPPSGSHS

CSE activity (AZMC probe assay) % of activation [1] | EC50 [1] | SMILES | Cytotoxicity assay LDH release (% of cytotoxicity) ([2]; no dose given) | also measured
28% | 0.0418 µM | CCn1cnc2c(Nc3cnn(CC4CCCO4)c3)ncnc21 (centres unmarked) [Compound 19, 9-ethyl-N-(1-((tetrahydrofuran-2-yl)methyl)-1H-pyrazol-4-yl)-9H-purin-6-amine] |  | Cytotoxicity assay LDH release (% of cytotoxicity) ([2]; at 50 uM): 15% at; inhibition at 50 µM ([3]; at 50 uM): 48%
46% | 0.021 µM | c1cc(Nc2cnn(CC3CCCO3)c2)ncn1 (centres unmarked) [Compound 20, N-(1-((tetrahydrofuran-2-yl)methyl)-1H-pyrazol-4-yl)pyrimidin-4-amine] |  | Cytotoxicity assay LDH release (% of cytotoxicity) ([2]; at 20 uM): 16% at; inhibition at 20 µM [3]: 23%
56% | 0.026 µM | CCn1cnc2c(Nc3cnn(C)c3)ncnc21 [Compound 25, 9-ethyl-N-(1-methyl-1H-pyrazol-4-yl)-9H-purin-6-amine] | 20% | 
57% | 0.0385 µM | Cn1cc(Nc2ncccn2)cn1 [Compound 26, N-(1-methyl-1H-pyrazol-4-yl)pyrimidin-2-amine] | 20% | 
39% | 0.0318 µM | CCn1cnc2c(Nc3cnn(CC4CCCCC4)c3)ncnc21 [Compound 30, N-(1-(cyclohexylmethyl)-1H-pyrazol-4-yl)-9-ethyl-9H-purin-6-amine] |  | Cytotoxicity assay LDH release (% of cytotoxicity) ([2]; at 20 uM): 5% at; inhibition at 20 µM [3]: 80%
61% | 0.0674 µM | c1cnc(Nc2cnn(CC3CCCCC3)c2)nc1 [Compound 31, N-(1-(cyclohexylmethyl)-1H-pyrazol-4-yl)pyrimidin-2-amine] | 15% | 
76% | 0.0352 µM | c1cnc(Nc2cnn(CC3CCCO3)c2)nc1 (centres unmarked) [Compound 32] |  | Cytotoxicity assay LDH release (% of cytotoxicity) ([2]; at 2 uM): 15% at; inhibition at 2 µM ([3]; at 2 uM): 36%
59% | 0.0197 µM | CCCn1cc(Nc2ncnc3c2ncn3CC)cn1 [Compound 33, 9-ethyl-N-(1-propyl-1H-pyrazol-4-yl)-9H-purin-6-amine] | 20% | 
35% | 0.0317 µM | CCn1cnc2c(Nc3cnn(Cc4ccccn4)c3)ncnc21 [Compound 34, 9-ethyl-N-(1-(pyridin-2-ylmethyl)-1H-pyrazol-4-yl)-9H-purin-6-amine] | 20% | 
109% | 0.043 µM | O=[N+]([O-])c1ccc(Nc2cnn(CC3CCCO3)c2)cc1 (centres unmarked) [Compound 35, N-(4-nitrophenyl)-1-((tetrahydrofuran-2-yl)methyl)-1H-pyrazol-4-amine] |  | Cytotoxicity assay LDH release (% of cytotoxicity) ([2]; at 0.3 uM): 4% at; inhibition at 0.3 µM [3]: 23%
62% | 0.0158 µM | O=C(Nc1cnn(CC2CCCO2)c1)c1ccccc1 (centres unmarked) [Compound 36, N-(1-((tetrahydrofuran-2-yl)methyl)-1H-pyrazol-4-yl)benzamide] |  | Cytotoxicity assay LDH release (% of cytotoxicity) ([2]; at 0.07 uM): 12% at; inhibition at 0.07 µM ([3]; at 0.07 uM): 42%
33% | 0.137 µM | O=C(Nc1cnn(CC2CCCO2)c1)c1cccc(F)c1 (centres unmarked) [Compound 39, 3-fluoro-N-(1-((tetrahydrofuran-2-yl)methyl)-1H-pyrazol-4-yl)benzamide] |  | Cytotoxicity assay LDH release (% of cytotoxicity) ([2]; at 20 uM): 8% at; inhibition at 20 µM [3]: 30%
65% | 0.0044 µM | O=C(Nc1cnn(CC2CCCO2)c1)c1ccc2ccccc2c1 (centres unmarked) [Compound 40, N-(1-((tetrahydrofuran-2-yl)methyl)-1H-pyrazol-4-yl)-2-naphthamide] |  | Cytotoxicity assay LDH release (% of cytotoxicity) ([2]; at 0.3 uM): 10% at; inhibition at 0.3 µM [3]: 56%
